Assay results taken from the CheMixHub viscosity set.
± gives the uncertainty stated by the source.

Experiment: xn = mol fraction of the nth substance listed

SMILES: NC1CCCCC1 + Cc1ccccc1
- viscosity (303.15 K, 101 kPa, x2 = 0.1242): 1.381 ± 0.012 mPa·s
- viscosity (303.15 K, 101 kPa, x2 = 0.2292): 1.177 ± 0.0099 mPa·s
- viscosity (303.15 K, 101 kPa, x2 = 0.3268): 1.013 ± 0.0085 mPa·s
- viscosity (303.15 K, 101 kPa, x2 = 0.4121): 0.8791 ± 0.0075 mPa·s
- viscosity (303.15 K, 101 kPa, x2 = 0.5347): 0.7115 ± 0.0061 mPa·s
- viscosity (303.15 K, 101 kPa, x2 = 0.6445): 0.6079 ± 0.0053 mPa·s
- viscosity (303.15 K, 101 kPa, x2 = 0.7365): 0.5443 ± 0.0047 mPa·s
- viscosity (303.15 K, 101 kPa, x2 = 0.8431): 0.4838 ± 0.0043 mPa·s
- viscosity (303.15 K, 101 kPa, x2 = 0.922): 0.4617 ± 0.0041 mPa·s

SMILES: ClC=C(Cl)Cl + CCO
- viscosity (293.15 K, 101.33 kPa, x2 = 0.15): 0.6368 ± 0.012 mPa·s
- viscosity (293.15 K, 101.33 kPa, x2 = 0.3): 0.7027 ± 0.013 mPa·s
- viscosity (293.15 K, 101.33 kPa, x2 = 0.45): 0.7685 ± 0.014 mPa·s
- viscosity (293.15 K, 101.33 kPa, x2 = 0.6): 0.8344 ± 0.015 mPa·s
- viscosity (293.15 K, 101.33 kPa, x2 = 0.75): 0.9003 ± 0.016 mPa·s
- viscosity (293.15 K, 101.33 kPa, x2 = 0.9): 0.9601 ± 0.017 mPa·s
- viscosity (303.15 K, 101.33 kPa, x2 = 0.15): 0.59 ± 0.011 mPa·s
- viscosity (303.15 K, 101.33 kPa, x2 = 0.3): 0.6477 ± 0.012 mPa·s
- viscosity (303.15 K, 101.33 kPa, x2 = 0.45): 0.7071 ± 0.013 mPa·s
- viscosity (303.15 K, 101.33 kPa, x2 = 0.6): 0.765 ± 0.014 mPa·s
- viscosity (303.15 K, 101.33 kPa, x2 = 0.75): 0.8177 ± 0.015 mPa·s
- viscosity (303.15 K, 101.33 kPa, x2 = 0.9): 0.8581 ± 0.015 mPa·s
- viscosity (313.15 K, 101.33 kPa, x2 = 0.15): 0.521 ± 0.01 mPa·s
- viscosity (313.15 K, 101.33 kPa, x2 = 0.3): 0.569 ± 0.011 mPa·s
- viscosity (313.15 K, 101.33 kPa, x2 = 0.45): 0.6186 ± 0.012 mPa·s
- viscosity (313.15 K, 101.33 kPa, x2 = 0.6): 0.6692 ± 0.012 mPa·s
- viscosity (313.15 K, 101.33 kPa, x2 = 0.75): 0.7193 ± 0.013 mPa·s
- viscosity (313.15 K, 101.33 kPa, x2 = 0.9): 0.7593 ± 0.014 mPa·s

SMILES: O=S(=O)([O-])NC1CCCCC1.[Na+] + O
- viscosity (293.15 K, 101 kPa, x1 = 0.0007834): 1.028 ± 0.0069 mPa·s
- viscosity (293.15 K, 101 kPa, x1 = 0.001319): 1.045 ± 0.007 mPa·s
- viscosity (293.15 K, 101 kPa, x1 = 0.001692): 1.058 ± 0.007 mPa·s
- viscosity (293.15 K, 101 kPa, x1 = 0.002246): 1.078 ± 0.0072 mPa·s
- viscosity (293.15 K, 101 kPa, x1 = 0.002766): 1.096 ± 0.0073 mPa·s
- viscosity (293.15 K, 101 kPa, x1 = 0.003045): 1.107 ± 0.0073 mPa·s
- viscosity (293.15 K, 101 kPa, x1 = 0.00349): 1.124 ± 0.0074 mPa·s
- viscosity (293.15 K, 101 kPa, x1 = 0.004121): 1.147 ± 0.0076 mPa·s
- viscosity (293.15 K, 101 kPa, x1 = 0.00513): 1.184 ± 0.0078 mPa·s
- viscosity (293.15 K, 101 kPa, x1 = 0.005949): 1.217 ± 0.008 mPa·s
- viscosity (298.15 K, 101 kPa, x1 = 0.0007834): 0.9131 ± 0.0062 mPa·s
- viscosity (298.15 K, 101 kPa, x1 = 0.001319): 0.9289 ± 0.0063 mPa·s
- viscosity (298.15 K, 101 kPa, x1 = 0.001692): 0.9398 ± 0.0063 mPa·s
- viscosity (298.15 K, 101 kPa, x1 = 0.002246): 0.9564 ± 0.0064 mPa·s
- viscosity (298.15 K, 101 kPa, x1 = 0.002766): 0.973 ± 0.0065 mPa·s
- viscosity (298.15 K, 101 kPa, x1 = 0.003045): 0.9813 ± 0.0066 mPa·s
- viscosity (298.15 K, 101 kPa, x1 = 0.00349): 0.9953 ± 0.0067 mPa·s
- viscosity (298.15 K, 101 kPa, x1 = 0.004121): 1.015 ± 0.0068 mPa·s
- viscosity (298.15 K, 101 kPa, x1 = 0.00513): 1.047 ± 0.007 mPa·s
- viscosity (298.15 K, 101 kPa, x1 = 0.005949): 1.075 ± 0.0071 mPa·s
- viscosity (303.15 K, 101 kPa, x1 = 0.0007834): 0.8176 ± 0.0056 mPa·s
- viscosity (303.15 K, 101 kPa, x1 = 0.001319): 0.8313 ± 0.0057 mPa·s
- viscosity (303.15 K, 101 kPa, x1 = 0.001692): 0.8413 ± 0.0057 mPa·s
- viscosity (303.15 K, 101 kPa, x1 = 0.002246): 0.8553 ± 0.0058 mPa·s
- viscosity (303.15 K, 101 kPa, x1 = 0.002766): 0.8697 ± 0.0059 mPa·s
- viscosity (303.15 K, 101 kPa, x1 = 0.003045): 0.8768 ± 0.0059 mPa·s
- viscosity (303.15 K, 101 kPa, x1 = 0.00349): 0.889 ± 0.006 mPa·s
- viscosity (303.15 K, 101 kPa, x1 = 0.004121): 0.9061 ± 0.0061 mPa·s
- viscosity (303.15 K, 101 kPa, x1 = 0.00513): 0.9337 ± 0.0063 mPa·s
- viscosity (303.15 K, 101 kPa, x1 = 0.005949): 0.9581 ± 0.0064 mPa·s
- viscosity (313.15 K, 101 kPa, x1 = 0.0007834): 0.6686 ± 0.0047 mPa·s
- viscosity (313.15 K, 101 kPa, x1 = 0.001319): 0.6797 ± 0.0048 mPa·s
- viscosity (313.15 K, 101 kPa, x1 = 0.001692): 0.6875 ± 0.0048 mPa·s
- viscosity (313.15 K, 101 kPa, x1 = 0.002246): 0.6983 ± 0.0049 mPa·s
- viscosity (313.15 K, 101 kPa, x1 = 0.002766): 0.7094 ± 0.005 mPa·s
- viscosity (313.15 K, 101 kPa, x1 = 0.003045): 0.7149 ± 0.005 mPa·s
- viscosity (313.15 K, 101 kPa, x1 = 0.00349): 0.7243 ± 0.005 mPa·s
- viscosity (313.15 K, 101 kPa, x1 = 0.004121): 0.7375 ± 0.0051 mPa·s
- viscosity (313.15 K, 101 kPa, x1 = 0.00513): 0.7588 ± 0.0052 mPa·s
- viscosity (313.15 K, 101 kPa, x1 = 0.005949): 0.7774 ± 0.0053 mPa·s
- viscosity (323.15 K, 101 kPa, x1 = 0.0007834): 0.5593 ± 0.0041 mPa·s
- viscosity (323.15 K, 101 kPa, x1 = 0.001319): 0.568 ± 0.0041 mPa·s
- viscosity (323.15 K, 101 kPa, x1 = 0.001692): 0.5741 ± 0.0042 mPa·s
- viscosity (323.15 K, 101 kPa, x1 = 0.002246): 0.5829 ± 0.0042 mPa·s
- viscosity (323.15 K, 101 kPa, x1 = 0.002766): 0.5918 ± 0.0043 mPa·s
- viscosity (323.15 K, 101 kPa, x1 = 0.003045): 0.5961 ± 0.0043 mPa·s
- viscosity (323.15 K, 101 kPa, x1 = 0.00349): 0.6036 ± 0.0043 mPa·s
- viscosity (323.15 K, 101 kPa, x1 = 0.004121): 0.6142 ± 0.0044 mPa·s
- viscosity (323.15 K, 101 kPa, x1 = 0.00513): 0.6312 ± 0.0045 mPa·s
- viscosity (323.15 K, 101 kPa, x1 = 0.005949): 0.6458 ± 0.0046 mPa·s

SMILES: O=C1CCCC1 + CNC=O
- viscosity (303.15 K, 101 kPa, x2 = 0.0865): 1.041 ± 0.051 mPa·s
- viscosity (303.15 K, 101 kPa, x2 = 0.1756): 1.104 ± 0.054 mPa·s
- viscosity (303.15 K, 101 kPa, x2 = 0.2675): 1.165 ± 0.056 mPa·s
- viscosity (303.15 K, 101 kPa, x2 = 0.3623): 1.226 ± 0.059 mPa·s
- viscosity (303.15 K, 101 kPa, x2 = 0.4601): 1.293 ± 0.062 mPa·s
- viscosity (303.15 K, 101 kPa, x2 = 0.5611): 1.355 ± 0.065 mPa·s
- viscosity (303.15 K, 101 kPa, x2 = 0.6654): 1.412 ± 0.067 mPa·s
- viscosity (303.15 K, 101 kPa, x2 = 0.7732): 1.467 ± 0.069 mPa·s
- viscosity (303.15 K, 101 kPa, x2 = 0.8847): 1.532 ± 0.072 mPa·s
- viscosity (308.15 K, 101 kPa, x2 = 0.0865): 0.9797 ± 0.049 mPa·s
- viscosity (308.15 K, 101 kPa, x2 = 0.1756): 1.035 ± 0.051 mPa·s
- viscosity (308.15 K, 101 kPa, x2 = 0.2675): 1.09 ± 0.053 mPa·s
- viscosity (308.15 K, 101 kPa, x2 = 0.3623): 1.144 ± 0.056 mPa·s
- viscosity (308.15 K, 101 kPa, x2 = 0.4601): 1.204 ± 0.058 mPa·s
- viscosity (308.15 K, 101 kPa, x2 = 0.5611): 1.258 ± 0.06 mPa·s
- viscosity (308.15 K, 101 kPa, x2 = 0.6654): 1.309 ± 0.063 mPa·s
- viscosity (308.15 K, 101 kPa, x2 = 0.7732): 1.358 ± 0.065 mPa·s
- viscosity (308.15 K, 101 kPa, x2 = 0.8847): 1.414 ± 0.067 mPa·s
- viscosity (313.15 K, 101 kPa, x2 = 0.0865): 0.9075 ± 0.045 mPa·s
- viscosity (313.15 K, 101 kPa, x2 = 0.1756): 0.9589 ± 0.048 mPa·s
- viscosity (313.15 K, 101 kPa, x2 = 0.2675): 1.01 ± 0.05 mPa·s
- viscosity (313.15 K, 101 kPa, x2 = 0.3623): 1.059 ± 0.052 mPa·s
- viscosity (313.15 K, 101 kPa, x2 = 0.4601): 1.114 ± 0.054 mPa·s
- viscosity (313.15 K, 101 kPa, x2 = 0.5611): 1.164 ± 0.056 mPa·s
- viscosity (313.15 K, 101 kPa, x2 = 0.6654): 1.21 ± 0.058 mPa·s
- viscosity (313.15 K, 101 kPa, x2 = 0.7732): 1.255 ± 0.06 mPa·s
- viscosity (313.15 K, 101 kPa, x2 = 0.8847): 1.307 ± 0.063 mPa·s
- viscosity (318.15 K, 101 kPa, x2 = 0.0865): 0.8512 ± 0.043 mPa·s
- viscosity (318.15 K, 101 kPa, x2 = 0.1756): 0.8981 ± 0.045 mPa·s
- viscosity (318.15 K, 101 kPa, x2 = 0.2675): 0.9442 ± 0.047 mPa·s
- viscosity (318.15 K, 101 kPa, x2 = 0.3623): 0.9895 ± 0.049 mPa·s
- viscosity (318.15 K, 101 kPa, x2 = 0.4601): 1.039 ± 0.051 mPa·s
- viscosity (318.15 K, 101 kPa, x2 = 0.5611): 1.085 ± 0.053 mPa·s
- viscosity (318.15 K, 101 kPa, x2 = 0.6654): 1.127 ± 0.055 mPa·s
- viscosity (318.15 K, 101 kPa, x2 = 0.7732): 1.167 ± 0.057 mPa·s
- viscosity (318.15 K, 101 kPa, x2 = 0.8847): 1.215 ± 0.059 mPa·s
